Structures are written as SMILES. In brackets after ≈: the same amount, converted by molar mass.

We go through 25 compounds from patent publication US5891657A (priority 1994, dated 1999).

Series [1] has as its system anti-analyte antibody. The conditions noted are these: magnetic-particle enzyme immunoassay.
Procedure: (§1) The sample to be tested is added, along with the enzyme conjugate, to a disposable test tube followed by the addition of paramagnetic particles with analyte-specific antibodies attached. At the end of an incubation period, a magnetic field is applied to hold the paramagnetic particles (with analyte and enzyme-conjugate bound to the antibodies on the particles, in proportion to their original concentration in the tube) in the tube and allow the unbound reagents to be decanted. After decanting, the particles are washed with Washing Solution.
(§2) The presence of analyte is detected by adding the enzyme substrate (hydrogen peroxide) and the chromogen (3,3',5,5'-tetramethylbenzidine). The enzyme-conjugate bound to the anti-analyte antibody catalyzes the conversion of the substrate/chromogen mixture to a colored product. After an incubation period, the reaction is stopped and stabilized by the addition of acid. Since the conjugate was in competition with the unlabeled analyte for the antibody sites, the color developed is inversely proportional to the concentration of analyte in the sample.
(§3) 200 μl of either standard, control or sample is added to each tube.
(§4) 250 μl of conjugate is added to each tube.
(§5) The antibody-coupled paramagnetic particles are mixed thoroughly and 500 ul of them are added to each tube (The stock solution with a concentration of 8-10 mg iron/ml was diluted 1:1000 in 150 mM Tris, 150 mM NaCl, 1 mM EDTA, 0.1% BSA with 15 ppm Proclin, pH 7.4 and 500 ul was added to each tube).
(§6) Tubes are vortexed for 1 to 2 seconds minimizing foaming.
(§7) Tubes are incubated for 15 min at room temperature (15°-30° C.).
(§8) Tubes in the magnetic rack are placed over a magnetic base for two minutes.
(§9) The tubes are decanted and gently blotted briefly in a consistent manner.
(§10) One ml of Washing Solution is added to each tube and the tubes are allowed to remain in the separation rack for two minutes.
(§11) Decant and gently blot all tubes briefly in a consistent manner.
(§12) Repeat steps 8 and 9 an additional time.
(§13) Remove the rack from the separator and add 500 μl of Color Solution to eac tube.
(§14) Vortex for 1 to 2 seconds minimizing foaming.
(§15) Incubate for 20 minutes at room temperature.
(§16) Add 500 μl of Stopping Solution to each tube.
(§17) Read results at 450 nm within 15 minutes after adding the Stopping Solution.
(§18) Calculating the mean absorbance value for each standard.
(§19) Calculating the % B/B0 for each standard by dividing the mean absorbance value for the standard by the mean absorbance value for the Diluent/Zero Standard In other words if the mean absorbance value for the standard is 0.5 times the mean absorbance value for the Diluent/Zero Standard then the % B/B0 is 50% and the concentration of standard used is the 50% B/B0 concentration.)
(§20) Constructing a standard curve by plotting the % B/B0 for each standard on vertical logit (Y) axis versus the corresponding analyte concentration on a horizontal algorithmic (X) axis.
(§21) 4. % B/B0 for controls and sample will then yield levels in ppm of analyte by interpolation using the standard curve.
The nature of series [2]: Loss of immunoreactivity on storage in open test tube (volatilization). Format: physicochemical. The conditions noted are these: conditions of Example 1; 2,4-D 10 ppm, naphthalene 0.75 ppm; FIG. 5. As to the method:
They were stored in 10 ml of distilled water at room temperature (15°-30° C.) in an open test tube (18 mm in diameter, and 150 mm in length).
The "Recovery" was taken to be inversely proportional to the light at 450 nm generated in the assay. […] The loss of reactivity as a function of time was concluded that the loss was due to volatilization and not chemical decomposition of the compounds. Also the loss was so great that it was concluded that even if the solutions had been incubated as 2 ml aliquots in 3 ml closed vials, much more than 30 percent would have volatilized over a 14-day period.
Additionally, preparations of anthracene (20 ppm), naphthalene (0.75 ppm), and 2,4-D (10 ppm), were tested for their immunoreactivity using the conditions of using the conditions described in Example 1.

In series [3] the test system is anti-analyte antibody. Kind of series: Cross-reactivity / immunoreactivity in competitive magnetic-particle enzyme immunoassay.
Procedure: as §1, §2, §3, §4, §5, §6, §7, §8, §9, §10, §11, §12, §13, §14, §15, §16, §17, §18, §19, §20, §21
A short description of series [4]: Stability (lack of volatilization) of 2 ml solution in stoppered 3 ml vial. Format: physicochemical. The conditions noted are these: 0.035, 0.10, 0.750 ppm; 2 ml in stoppered 3 ml vial; various temperatures; 60 days; FIGS. 2-4. As to the method:
Storage was effected by incubating the 2 ml of solution in a stoppered vial with a 3 ml capacity. The one ml of open "head space" in the vial […] to allow volatilization of the N-(3-methylbenzyl)-diglycolic acid, monoamide.
At each concentration of the N-(3-methylbenzyl)-diglycolic acid, monoamide, the immunoassay was performed at various temperatures denoted in the Figure summarizing the results.

The conditions of series [5]: because of boiling point 279° C. (Merck Index); cited from earlier work.
Series [6] in a line: Storage stability, 2.5 ml in 3.5 ml vials, antibody preparation reactive with anthracene and phenanthrene. In kind it is physicochemical. As to the method:
Additional experiments were done using volumes of 2.5 ml in 3.5 ml vials and an antibody preparation reactive with anthracene and phenanthrene, the antibodies not made with the immunogen described herein and although much less suited for purposes of the present inventions than that made from the described immunogen, were adequate for obtaining the stability curves. (The results were considered to essentially reflect what would have occurred if the storage was done with 2 ml of solution in a 3 ml vial.) Anthracene was tested at concentrations of 1 ppb (upper set of curves in FIG. 6), 10 ppb (middle set of curves in FIG. 6) and 100 ppb (lower set of curves in FIG. 6) in TBS pH 7.0 at the specified temperatures in FIG. 6. Phenanthrene was tested at concentrations of 1 ppb (upper set of curves in FIG. 7), 10 ppb (middle set of curves in FIG. 7) and 100 ppb (lower set of curves in FIG. 7) in TBS at pH 7.0 at the specified temperatures in FIG. 7.

As usually defined, the IC50 is the point on the concentration scale where inhibition reaches its midpoint. Higher therefore signals lower potency. Compound `Cc1ccc(C)c(C)c1` [1,2,4-trimethylbenzene] had an IC50 in series [1] of 1.15 mg/L (≈ 9.57 µM).

Consider `Cc1cc(C)cc(C)c1` [1,3,5-tri-methylbenzene], for which it took 3.5 mg/L (≈ 29.1 µM) to reach half-maximal inhibition in series [1] (IC50). Against the preceding compound, the IC50 is about 3-fold higher.

As for `O=C(O)COc1ccc(Cl)cc1Cl` [2,4-D], the stability on storage entry in series [2] was “more stable than m-xylene but less stable than anthracene”.

`Cc1cccc(CNC(=O)COCC(=O)O)c1` [N-(3-methylbenzyl)-diglycolic acid, monoamide]: the “equivalent Total BTEX concentration” value was “approximately 0.09 ppm” in series [3] (standard at 0.035 ppm); 0.09 ppm in series [3] (standard at 0.035 ppm, monoamide); “approximately 0.35 ppm” in series [3] (standard at 0.10 ppm); 0.35 ppm in series [3] (standard at 0.10 ppm, monoamide); “approximately 3.00 ppm” in series [3] (standard at 0.75 ppm); 3.00 ppm in series [3] (standard at 0.75 ppm, monoamide). In series [4], the “stability (lack of volatilization) as a function of storage time” value was “essentially stable”.

Take `c1cc2c3c(cccc3c1)CC2` [acenaphthene]: the IC50 in series [1] amounted to 6.2 mg/L (≈ 40.2 µM). In series [5], the “stability as regards volatilization” value was “stable as regards volatilization”.

`c1ccc2cc3ccccc3cc2c1` [anthracene] registered an IC50 in series [1] of 28 mg/L (≈ 157 µM). For the same compound, the stability on storage result in series [6] (1, 10, 100 ppb in TBS pH 7.0, 2.5 ml in 3.5 ml vials, FIGS. 6, 7) was “very stable (meets the 14-day test)”.

For the compound `c1ccccc1` [benzene], in series [1], the IC50 is 51 mg/L (≈ 653 µM).

Compound `C1CCCCC1` [cyclohexane] displayed an IC50 in series [1] greater than 100 mg/L.

The compound `CCc1ccccc1` [ethylbenzene] had an IC50 in series [1] of 7.8 mg/L (≈ 73.5 µM).

`Clc1c(Cl)c(Cl)c(Cl)c(Cl)c1Cl` [hexachlorobenzene] displayed an IC50 in series [1] greater than 100 mg/L.

In the case of `Cc1cccc(C)c1` [m-xylene], 1.8 mg/L (≈ 17 µM) corresponded to half-maximal inhibition in series [1] (IC50).

In series [1], `ClCCl` [methylene chloride] had an IC50 greater than 100 mg/L.

For `CCCCCCCCCC` [n-decane], the IC50 in series [1] was greater than 100 mg/L.

`CCCCCCC` [n-heptane] gave an IC50 in series [1] of 72 mg/L (≈ 719 µM).

As to `CCCCCC` [n-hexane], in series [1], the IC50 was greater than 100 mg/L.

In series [1], `CCCCCCCCC` [n-nonane] had an IC50 greater than 100 mg/L.

`CCCCCCCC` [n-octane] returned an IC50 in series [1] greater than 100 mg/L.

Compound `CCCc1ccccc1` [n-propylbenzene] showed an IC50 in series [1] of 4.7 mg/L (≈ 39.1 µM).

In series [1], `c1ccc2ccccc2c1` [naphthalene] yielded an IC50 of 0.59 mg/L (≈ 4.6 µM). In addition, the stability on storage result in series [2] is recorded as “not sufficiently stable”.

The compound `Cc1ccccc1C` [o-xylene] displayed an IC50 in series [1] of 4.7 mg/L (≈ 44.3 µM).

In turn, `Cc1ccc(C)cc1` [p-xylene] gave an IC50 in series [1] of 3.1 mg/L (≈ 29.2 µM). Against the preceding compound, the IC50 is about 1.5-fold lower.

In series [1], `c1ccc2c(c1)ccc1ccccc12` [phenanthrene] registered an IC50 of 1.6 mg/L (≈ 8.98 µM). For the same compound, in series [6] (pH 7), the stability on storage result is “very stable (meets the 14-day test)”.

Regarding `C=Cc1ccccc1` [styrene], half-maximal inhibition in series [1] (IC50) was put at 2.6 mg/L (≈ 25 µM).

Take `Cc1ccccc1` [toluene]: the IC50 in series [1] is 7.4 mg/L (≈ 80.3 µM).

As for `ClC=C(Cl)Cl` [trichloroethylene], the IC50 in series [1] is greater than 100 mg/L.
